Measurements taken from the NIST ThermoML archive (doi:10.1016/j.tca.2011.08.002).
± gives the expanded uncertainty stated by the source.

Assays:
[1] = xn = mol fraction of the nth substance listed; conditions: 101 kPa, Liquid, Vibrating tube method
[2] = refractive index (Na D-line) (dimensionless); xn = mol fraction of the nth substance listed; conditions: 101 kPa, Liquid, Standard Abbe refractometry

C1CCC(NC2CCCCC2)CC1 [N-cyclohexylcyclohexanamine] + CCCO
Conditions | mass density, [1] [kg/m3] | refractive index, [2]
288.15 K, x2 = 0 | 915.498 ± 0.23 | 1.48636 ± 0.0004
288.15 K, x2 = 0.0527 | 914.71 ± 0.23 | 1.48522 ± 0.0004
288.15 K, x2 = 0.1009 | 913.805 ± 0.22 | 1.48396 ± 0.0004
288.15 K, x2 = 0.2004 | 911.438 ± 0.2 | 1.48074 ± 0.00039
288.15 K, x2 = 0.3002 | 908.197 ± 0.19 | 1.47672 ± 0.00039
288.15 K, x2 = 0.4003 | 903.914 ± 0.18 | 1.47182 ± 0.00038
288.15 K, x2 = 0.5005 | 898.063 ± 0.17 | 1.46554 ± 0.00038
288.15 K, x2 = 0.6 | 889.96 ± 0.16 | 1.45743 ± 0.00037
288.15 K, x2 = 0.6998 | 878.617 ± 0.15 | 1.44689 ± 0.00037
288.15 K, x2 = 0.8 | 862.501 ± 0.14 | 1.4327 ± 0.00037
288.15 K, x2 = 0.8999 | 839.78 ± 0.15 | 1.41365 ± 0.00037
288.15 K, x2 = 0.9491 | 825.362 ± 0.15 | 1.40206 ± 0.00037
293.15 K, x2 = 0 | 911.705 ± 0.23 | 1.48416 ± 0.0004
293.15 K, x2 = 0.0527 | 910.893 ± 0.23 | 1.48299 ± 0.0004
293.15 K, x2 = 0.1009 | 909.957 ± 0.22 | 1.48175 ± 0.0004
293.15 K, x2 = 0.2004 | 907.522 ± 0.2 | 1.47851 ± 0.00039
293.15 K, x2 = 0.3002 | 904.203 ± 0.19 | 1.47445 ± 0.00039
293.15 K, x2 = 0.4003 | 899.835 ± 0.18 | 1.4695 ± 0.00038
293.15 K, x2 = 0.5005 | 893.905 ± 0.17 | 1.4632 ± 0.00038
293.15 K, x2 = 0.6 | 885.737 ± 0.16 | 1.45509 ± 0.00038
293.15 K, x2 = 0.6998 | 874.377 ± 0.15 | 1.44458 ± 0.00037
293.15 K, x2 = 0.8 | 858.315 ± 0.15 | 1.43047 ± 0.00037
293.15 K, x2 = 0.8999 | 835.696 ± 0.15 | 1.41145 ± 0.00037
293.15 K, x2 = 0.9491 | 821.334 ± 0.16 | 1.39989 ± 0.00037
298.15 K, x2 = 0 | 907.923 ± 0.23 | 1.48198 ± 0.0004
298.15 K, x2 = 0.0527 | 907.079 ± 0.23 | 1.48079 ± 0.0004
298.15 K, x2 = 0.1009 | 906.116 ± 0.22 | 1.47952 ± 0.0004
298.15 K, x2 = 0.2004 | 903.612 ± 0.2 | 1.47626 ± 0.00039
298.15 K, x2 = 0.3002 | 900.208 ± 0.19 | 1.47217 ± 0.00039
298.15 K, x2 = 0.4003 | 895.758 ± 0.18 | 1.46722 ± 0.00038
298.15 K, x2 = 0.5005 | 889.747 ± 0.17 | 1.46088 ± 0.00038
298.15 K, x2 = 0.6 | 881.518 ± 0.16 | 1.45273 ± 0.00038
298.15 K, x2 = 0.6998 | 870.137 ± 0.16 | 1.44226 ± 0.00037
298.15 K, x2 = 0.8 | 854.115 ± 0.15 | 1.4282 ± 0.00037
298.15 K, x2 = 0.8999 | 831.592 ± 0.15 | 1.40927 ± 0.00037
298.15 K, x2 = 0.9491 | 817.281 ± 0.16 | 1.3977 ± 0.00037
303.15 K, x2 = 0 | 904.144 ± 0.23 | 1.47978 ± 0.0004
303.15 K, x2 = 0.0527 | 903.271 ± 0.23 | 1.47861 ± 0.0004
303.15 K, x2 = 0.1009 | 902.276 ± 0.22 | 1.47729 ± 0.0004
303.15 K, x2 = 0.2004 | 899.7 ± 0.2 | 1.47402 ± 0.00039
303.15 K, x2 = 0.3002 | 896.218 ± 0.19 | 1.4699 ± 0.00039
303.15 K, x2 = 0.4003 | 891.683 ± 0.18 | 1.46491 ± 0.00038
303.15 K, x2 = 0.5005 | 885.59 ± 0.17 | 1.45856 ± 0.00038
303.15 K, x2 = 0.6 | 877.299 ± 0.16 | 1.4504 ± 0.00038
303.15 K, x2 = 0.6998 | 865.887 ± 0.16 | 1.43992 ± 0.00037
303.15 K, x2 = 0.8 | 849.899 ± 0.15 | 1.42592 ± 0.00037
303.15 K, x2 = 0.8999 | 827.461 ± 0.15 | 1.40709 ± 0.00037
303.15 K, x2 = 0.9491 | 813.202 ± 0.16 | 1.39547 ± 0.00037
308.15 K, x2 = 0 | 900.372 ± 0.23 | 1.47761 ± 0.0004
308.15 K, x2 = 0.0527 | 899.466 ± 0.23 | 1.47642 ± 0.0004
308.15 K, x2 = 0.1009 | 898.437 ± 0.22 | 1.47508 ± 0.0004
308.15 K, x2 = 0.2004 | 895.78 ± 0.2 | 1.47179 ± 0.00039
308.15 K, x2 = 0.3002 | 892.225 ± 0.19 | 1.46765 ± 0.00039
308.15 K, x2 = 0.4003 | 887.605 ± 0.18 | 1.46262 ± 0.00038
308.15 K, x2 = 0.5005 | 881.429 ± 0.17 | 1.45625 ± 0.00038
308.15 K, x2 = 0.6 | 873.074 ± 0.16 | 1.44805 ± 0.00038
308.15 K, x2 = 0.6998 | 861.626 ± 0.16 | 1.43759 ± 0.00037
308.15 K, x2 = 0.8 | 845.662 ± 0.16 | 1.42358 ± 0.00037
308.15 K, x2 = 0.8999 | 823.3 ± 0.16 | 1.40482 ± 0.00037
308.15 K, x2 = 0.9491 | 809.088 ± 0.16 | 1.39323 ± 0.00037
313.15 K, x2 = 0 | 896.608 ± 0.23 | 1.47562 ± 0.0004
313.15 K, x2 = 0.0527 | 895.664 ± 0.23 | 1.4743 ± 0.0004
313.15 K, x2 = 0.1009 | 894.6 ± 0.22 | 1.47287 ± 0.0004
313.15 K, x2 = 0.2004 | 891.876 ± 0.21 | 1.4695 ± 0.00039
313.15 K, x2 = 0.3002 | 888.227 ± 0.19 | 1.46533 ± 0.00039
313.15 K, x2 = 0.4003 | 883.521 ± 0.18 | 1.46024 ± 0.00038
313.15 K, x2 = 0.5005 | 877.263 ± 0.17 | 1.45383 ± 0.00038
313.15 K, x2 = 0.6 | 868.843 ± 0.16 | 1.44565 ± 0.00038
313.15 K, x2 = 0.6998 | 857.35 ± 0.16 | 1.43509 ± 0.00037
313.15 K, x2 = 0.8 | 841.4 ± 0.16 | 1.42112 ± 0.00037
313.15 K, x2 = 0.8999 | 819.106 ± 0.16 | 1.40242 ± 0.00037
313.15 K, x2 = 0.9491 | 804.934 ± 0.16 | 1.39093 ± 0.00037
318.15 K, x2 = 0 | 892.847 ± 0.23 | 1.47347 ± 0.0004
318.15 K, x2 = 0.0527 | 891.862 ± 0.23 | 1.47211 ± 0.0004
318.15 K, x2 = 0.1009 | 890.759 ± 0.22 | 1.47068 ± 0.0004
318.15 K, x2 = 0.2004 | 887.957 ± 0.21 | 1.4673 ± 0.00039
318.15 K, x2 = 0.3002 | 884.225 ± 0.19 | 1.46306 ± 0.00039
318.15 K, x2 = 0.4003 | 879.43 ± 0.18 | 1.45795 ± 0.00038
318.15 K, x2 = 0.5005 | 873.086 ± 0.17 | 1.45151 ± 0.00038
318.15 K, x2 = 0.6 | 864.613 ± 0.17 | 1.44331 ± 0.00038
318.15 K, x2 = 0.6998 | 853.054 ± 0.16 | 1.43279 ± 0.00037
318.15 K, x2 = 0.8 | 837.107 ± 0.16 | 1.41883 ± 0.00037
318.15 K, x2 = 0.8999 | 814.869 ± 0.16 | 1.40021 ± 0.00037
318.15 K, x2 = 0.9491 | 800.736 ± 0.17 | 1.38876 ± 0.00037
323.15 K, x2 = 0 | 889.089 ± 0.23 | 1.47134 ± 0.0004
323.15 K, x2 = 0.0527 | 888.061 ± 0.23 | 1.46997 ± 0.0004
323.15 K, x2 = 0.1009 | 886.919 ± 0.22 | 1.46853 ± 0.0004
323.15 K, x2 = 0.2004 | 884.032 ± 0.21 | 1.4651 ± 0.00039
323.15 K, x2 = 0.3002 | 880.209 ± 0.2 | 1.46087 ± 0.00039
323.15 K, x2 = 0.4003 | 875.326 ± 0.18 | 1.4557 ± 0.00038
323.15 K, x2 = 0.5005 | 868.893 ± 0.18 | 1.4492 ± 0.00038
323.15 K, x2 = 0.6 | 860.363 ± 0.17 | 1.44112 ± 0.00038
323.15 K, x2 = 0.6998 | 848.736 ± 0.17 | 1.43046 ± 0.00037
323.15 K, x2 = 0.8 | 832.782 ± 0.17 | 1.41649 ± 0.00037
323.15 K, x2 = 0.8999 | 810.587 ± 0.17 | 1.39788 ± 0.00037
323.15 K, x2 = 0.9491 | 796.489 ± 0.17 | 1.38638 ± 0.00037
